For one test, the system named is RAW264.7. Briefly: Inhibition of LPS-induced NO production in mouse RAW264.7 cells at 10 umol/L after 24 hrs preincubated for 30 mins followed by LPS addition measured after 24 hrs by Griess assay relative to control. In kind it is functional. Background: Nitrite, measured by Griess reagent, commonly stands in for NO production.
In test [1] the test system is PC-12. Nature of the test: Neuroprotective activity against H2O2-induced cytotoxicity in rat PC12 cells assessed as cell viability at 10 umol/L preincubated for 2 hrs followed by H2O2 addition and measured after 24 hrs by MTT assay (reference value: 18.9 +/- 2.2%). The format is functional. Particulars: for viability at 10 µM: read-out: Activity. Background: Formazan colour is commonly taken as a measure of viable cells.

Test [2] has as its system Mus musculus. Nature of the test: Cognition enhancing effect in scopolamine-induced cognitive impairment mouse model assessed as increase in time spent in target quadrant at 3 mg/kg, ig administered once in a day for 14 consecutive days followed by scopolamine challenge 1 hr post last dose by Morris water maze test. In kind it is functional, organism-based.
For test [3], the system named is PC-12. Nature of the test: Neuroprotective activity against H2O2-induced cytotoxicity in rat PC12 cells assessed as cell viability at 1 mM preincubated for 2 hrs followed by H2O2 addition and measured after 24 hrs by MTT assay (reference value: 18.9 +/- 2.2%). The format is functional. To be noted: read-out: Activity.
Test [4] concerns Mus musculus. Briefly: Cognition enhancing effect in scopolamine-induced cognitive impairment mouse model assessed as increase in time spent in target quadrant at 6 mg/kg, ig administered once in a day for 14 consecutive days followed by scopolamine challenge 1 hr post last dose by Morris water maze test. In kind it is functional, organism-based.

Calls of active or inactive are those of the source. No cut-off for these calls is given here.

For orientation: inhibition means the percentage by which the read-out fell short of the control. Read a high inhibition as a strong effect. For the compound `C[C@H]1CC[C@@]2(OC1)O[C@H]1C[C@H]3[C@@H]4CC[C@@H]5C[C@@H](OC(=O)NCc6ccccc6)CC[C@]5(C)[C@H]4CC[C@]3(C)[C@H]1[C@@H]2C`, in the test with RAW264.7, testing at 10 µM gave an inhibition of 8.9%. Moreover, the viability at 10 µM in the test on PC-12 [1] amounted to 49.4%.
Turning to `COc1cc2c(cc1OC)C(=O)C(CC1CCN(Cc3ccccc3)CC1)C2` (centres undefined), the outcome with Mus musculus [2] was Active.
On to `CC(=O)N[C@@H](CS)C(=O)O` [ACETYLCYSTEINE], for which, in the test with PC-12 [3], the viability at 1000 µM came to 35.3%.
For the compound `C[C@H]1CC[C@@]2(OC1)O[C@H]1C[C@H]3[C@@H]4CC[C@@H]5C[C@@H](OC(=O)NN)CC[C@]5(C)[C@H]4CC[C@]3(C)[C@H]1[C@@H]2C`, the viability at 10 µM in the test with PC-12 [1] was 11.2%.
As for `CC(C)CNC(=O)O[C@H]1CC[C@@]2(C)[C@H](CC[C@@H]3[C@@H]2CC[C@]2(C)[C@@H]4[C@H](C[C@@H]32)O[C@]2(CC[C@H](C)CO2)[C@H]4C)C1`, the result in the test on Mus musculus [4] was Active. Moreover, testing at 10 µM in the test on RAW264.7 gave an inhibition of 20.5%. Besides, the viability at 10 µM with PC-12 [1] was 48.2%.
In turn, `C[C@H]1CC[C@@]2(OC1)O[C@H]1C[C@H]3[C@@H]4CC[C@@H]5C[C@@H](OC(=O)NCc6cccc(Cl)c6)CC[C@]5(C)[C@H]4CC[C@]3(C)[C@H]1[C@@H]2C` displayed an inhibition at 10 µM in the test on RAW264.7 of 19.3%. Besides, the viability at 10 µM in the test with PC-12 [1] turned out to be 40.3%.
With `C[C@H]1CC[C@@]2(OC1)O[C@H]1C[C@H]3[C@@H]4CC[C@@H]5C[C@@H](OC(=O)N6CCNCC6)CC[C@]5(C)[C@H]4CC[C@]3(C)[C@H]1[C@@H]2C`, the viability at 10 µM in the test with PC-12 [1] came to 3.4%.
Still for that read-out and setting: the result for `C[C@H]1CC[C@@]2(OC1)O[C@H]1C[C@H]3[C@@H]4CC[C@@H]5C[C@@H](OC(=O)NCc6ccc(O)cc6)CC[C@]5(C)[C@H]4CC[C@]3(C)[C@H]1[C@@H]2C` reads 18.9%.
In the test on RAW264.7, `C[C@H]1CC[C@@]2(OC1)O[C@H]1C[C@H]3[C@@H]4CC[C@@H]5C[C@@H](OC(=O)NC6CCCCC6)CC[C@]5(C)[C@H]4CC[C@]3(C)[C@H]1[C@@H]2C` showed an inhibition at 10 µM of 4.6%. Further, in the test on PC-12 [1], the viability at 10 µM amounted to 52.2%.
Turning to `C[C@H]1CC[C@@]2(OC1)O[C@H]1C[C@H]3[C@@H]4CC[C@@H]5C[C@@H](OC(=O)N6CCCC6)CC[C@]5(C)[C@H]4CC[C@]3(C)[C@H]1[C@@H]2C`, in the test on PC-12 [1], the viability at 10 µM is 16.1%.
`C[C@H]1CC[C@@]2(OC1)O[C@H]1C[C@H]3[C@@H]4CC[C@@H]5C[C@@H](OC(=O)NCc6ccc(Cl)cc6)CC[C@]5(C)[C@H]4CC[C@]3(C)[C@H]1[C@@H]2C`: the inhibition at 10 µM with RAW264.7 is 21.4%. The viability at 10 µM in the test on PC-12 [1] came out at 49.8%.
Turning to `COc1ccc(CNC(=O)O[C@H]2CC[C@@]3(C)[C@H](CC[C@@H]4[C@@H]3CC[C@]3(C)[C@@H]5[C@H](C[C@@H]43)O[C@]3(CC[C@H](C)CO3)[C@H]5C)C2)cc1`, the viability at 10 µM with PC-12 [1] is 21.5%.
Turning to `C[C@H]1CC[C@@]2(OC1)O[C@H]1C[C@H]3[C@@H]4CC[C@@H]5C[C@@H](OC(=O)NC(=N)NC#N)CC[C@]5(C)[C@H]4CC[C@]3(C)[C@H]1[C@@H]2C`, in the test with PC-12 [1], the viability at 10 µM is 23.5%.
The same measure, in the same setting: the result for `Cc1ccc(CNC(=O)O[C@H]2CC[C@@]3(C)[C@H](CC[C@@H]4[C@@H]3CC[C@]3(C)[C@@H]5[C@H](C[C@@H]43)O[C@]3(CC[C@H](C)CO3)[C@H]5C)C2)cc1` reads 39.3%.
Take `C[C@H]1CC[C@@]2(OC1)O[C@H]1C[C@H]3[C@@H]4CC[C@@H]5C[C@@H](OC(=O)NCCN)CC[C@]5(C)[C@H]4CC[C@]3(C)[C@H]1[C@@H]2C`: the outcome in the test with PC-12 [1] was inactive.
For the compound `C[C@H]1CC[C@@]2(OC1)O[C@H]1C[C@H]3[C@@H]4CC[C@@H]5C[C@@H](O)CC[C@]5(C)[C@H]4CC[C@]3(C)[C@H]1[C@@H]2C` [SARSASAPOGENIN], the viability at 10 µM in the test with PC-12 [1] came out at 3.3%.
In the test on RAW264.7, `C[C@H]1CC[C@@]2(OC1)O[C@H]1C[C@H]3[C@@H]4CC[C@@H]5C[C@@H](OC(=O)N6CCCCC6)CC[C@]5(C)[C@H]4CC[C@]3(C)[C@H]1[C@@H]2C` gave an inhibition at 10 µM of 28.7%. Further, the viability at 10 µM in the test with PC-12 [1] turned out to be 20.1%.

For the origin of these results see ChEMBL document CHEMBL4000176, “Synthesis and SAR study of novel sarsasapogenin derivatives as potent neuroprotective agents and NO production inhibitors” (2017).
